Measured values taken from patent publication US20260295053A1, “COMPOUNDS FOR DEGRADATION AND INHIBITION OF KRAS (G12D) PROTEIN” (Shenzhen Ionova Life Science Co., Ltd., priority 2023, published 2026).

Molecular target: T1, KRAS (G12D) (Homo sapiens, UniProt P01116, G12D)
T1 construct: in-cell western with KRAS G12D antibody after 24 h
Experiment: KRAS (G12D) cellular degradation assay in AsPC-1 cells
Assay type: cell-based
Details: 24 hours, antibody fluorescence (Odyssey CLX), DC50 half-maximal degradation concentration
Procedure, shortened: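 AsPC-1 cells: for degradation, grown to ~90% confluency, treated 24 h with 1:3 compound series ([…] to 1.5 nM), then fixed and immunostained for KRAS G12D and β-actin, read by infrared fluorescence, DC50 fitted. Proliferation: 3,500 cells/well, 6-day treatment, CellTiter Glo luminescence, IC50 fitted.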

T1 sequence (P01116 1-188 isoform P01116-2 G12D): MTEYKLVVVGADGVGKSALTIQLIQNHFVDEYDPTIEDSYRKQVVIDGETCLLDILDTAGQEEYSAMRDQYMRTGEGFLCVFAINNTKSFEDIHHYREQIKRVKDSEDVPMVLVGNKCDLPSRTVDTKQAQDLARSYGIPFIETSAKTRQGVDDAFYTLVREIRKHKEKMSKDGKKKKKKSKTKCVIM

SMILES	DC50
CO[C@@H](C)COc1nc(N2C[C@@H]3C[C@H]2CN3)c2cc(C3CC3)c(-c3c(C)c(F)cc4[nH]ncc34)c(OCc3ccc(-c4cn([C@H](C(=O)N5C[C@H](O)C[C@H]5C(=O)N[C@H](C#Cc5cncc6nn(C)cc56)CO)C(C)C)nn4)cc3)c2n1 [Example 185, (2S,4R)-1-((2S)-2-(4-(4-(((4-((1S,4S)-2,5-diazabicyclo[2.2.1]heptan-2-yl)-6-cyclopropyl-7-(6-fluoro-5-methyl-1H-indazol-4-yl)-2-((S)-2-methoxypropoxy)quinazolin-8-yl)oxy)methyl)phenyl)-1H-1,2,3-triazol-1l-yl)-3-methylbutanoyl)-4-hydroxy-N—((R)-1-hydroxy-4-(2-methyl-2H-pyrazolo[3,4-c]pyridin-4-yl)but-3-yn-2-yl)pyrrolidine-2-carboxamide]	10 to 100 nM
CO[C@@H](C)COc1nc(N2C[C@@H]3C[C@H]2CN3)c2cc(C3CC3)c(-c3c(C)c(F)cc4[nH]ncc34)c(OCc3ccc(-c4cn([C@H](C(=O)N5C[C@H](O)C[C@H]5C(=O)N[C@H](C#Cc5ccnc6nn(C)cc56)CO)C(C)C)nn4)cc3)c2n1 [Example 191, (2S,4R)-1-((2S)-2-(4-(4-(((4-((1S,4S)-2,5-diazabicyclo[2.2.1]heptan-2-yl)-6-cyclopropyl-7-(6-fluoro-5-methyl-1H-indazol-4-yl)-2-((S)-2-methoxypropoxy)quinazolin-8-yl)oxy)methyl)phenyl)-1H-1,2,3-triazol-1-yl)-3-methylbutanoyl)-4-hydroxy-N—((R)-1-hydroxy-4-(2-methyl-2H-pyrazolo[3,4-b]pyridin-4-yl)but-3-yn-2-yl)pyrrolidine-2-carboxamide]	10 to 100 nM
CCn1nccc1-c1ccc([C@@H](NC(=O)[C@@H]2C[C@@H](O)CN2C(=O)[C@H](C(C)C)n2cc(-c3ccc(COc4c(-c5c(C)c(F)cc6[nH]ncc56)c(C5CC5)cc5c(N6C[C@@H]7C[C@H]6CN7)nc(O[C@H]6C[C@H](OC)C6)nc45)cc3)nn2)[C@H](C)O)nc1 [Example 200, (2S,4R)-1-((2S)-2-(4-(4-(((4-((1S,4S)-2,5-diazabicyclo[2.2.1]heptan-2-yl)-6-cyclopropyl-7-(6-fluoro-5-methyl-1H-indazol-4-yl)-2-((1r,3S)-3-methoxycyclobutoxy)quinazolin-8-yl)oxy)methyl)phenyl)-1H-1,2,3-triazol-1-yl)-3-methylbutanoyl)-N-((1R,2S)-1-(5-(1-ethyl-1H-pyrazol-5-yl)pyridin-2-yl)-2-hydroxypropyl)-4-hydroxypyrrolidine-2-carboxamide]	< 10 nM
CCn1nccc1-c1ccc([C@@H](NC(=O)[C@@H]2C[C@@H](O)CN2C(=O)[C@H](C(C)C)n2cc(-c3ccc(COc4c(-c5c(C)c(F)cc6[nH]ncc56)c(C5CC5)cc5c(N(C)[C@H]6CCNC6)nc(OC[C@H]6CCCO6)nc45)cc3)nn2)[C@H](C)O)c2c1CC2 [Example 209, (2S,4R)-1-((2S)-2-(4-(4-(((6-cyclopropyl-7-(6-fluoro-5-methyl-1H-indazol-4-yl)-4-(methyl((S)-pyrrolidin-3-yl)amino)-2-(((R)-tetrahydrofuran-2-yl)methoxy)quinazolin-8-yl)oxy)methyl)phenyl)-1H-1,2,3-triazol-1-yl)-3-methylbutanoyl)-N-((1R,2S)-1-(5-(1-ethyl-1H-pyrazol-5-yl)bicyclo[4.2.0]octa-1(6),2,4-trien-2-yl)-2-hydroxypropyl)-4-hydroxypyrrolidine-2-carboxamide]	< 10 nM
CCn1nccc1-c1ccc([C@@H](NC(=O)[C@@H]2C[C@@H](O)CN2C(=O)[C@H](C(C)C)n2cc(-c3ccc(COc4c(-c5c(C)c(F)cc6[nH]ncc56)c(C5CC5)cc5c(N(C)[C@H]6CCNC6)nc(OC[C@@H]6CCCO6)nc45)cc3)nn2)[C@H](C)O)c2c1CC2 [Example 210, (2S,4R)-1-((2S)-2-(4-(4-(((6-cyclopropyl-7-(6-fluoro-5-methyl-1H-indazol-4-yl)-4-(methyl((S)-pyrrolidin-3-yl)amino)-2-(((S)-tetrahydrofuran-2-yl)methoxy)quinazolin-8-yl)oxy)methyl)phenyl)-1H-1,2,3-triazol-1-yl)-3-methylbutanoyl)-N-((1R,2S)-1-(5-(1-ethyl-1H-pyrazol-5-yl)bicyclo[4.2.0]octa-1(6),2,4-trien-2-yl)-2-hydroxypropyl)-4-hydroxypyrrolidine-2-carboxamide]	< 10 nM
CCn1nccc1-c1ccc([C@@H](NC(=O)[C@@H]2C[C@@H](O)CN2C(=O)[C@H](C(C)C)n2cc(-c3ccc(COc4c(-c5c(C)c(F)cc6[nH]ncc56)c(C5CC5)cc5c(N(C)[C@@H]6CCNC6)nc(O[C@H]6C[C@H](OC)C6)nc45)cc3)nn2)[C@H](C)O)c2c1CC2 [Example 211, (2S,4R)-1-((2S)-2-(4-(4-(((6-cyclopropyl-7-(6-fluoro-5-methyl-1H-indazol-4-yl)-2-((1r,3R)-3-methoxycyclobutoxy)-4-(methyl((R)-pyrrolidin-3-yl)amino)quinazolin-8-yl)oxy)methyl)phenyl)-1H-1,2,3-triazol-1-yl)-3-methylbutanoyl)-N-((1R,2S)-1-(5-(1-ethyl-1H-pyrazol-5-yl)bicyclo[4.2.0]octa-1(6),2,4-trien-2-yl)-2-hydroxypropyl)-4-hydroxypyrrolidine-2-carboxamide]	< 10 nM
CO[C@@H]1CC[C@@H](Oc2nc(N3C[C@@H]4C[C@H]3CN4)c3cc(C4CC4)c(-c4c(C)c(F)cc5[nH]ncc45)c(OCc4ccc(-c5cn([C@H](C(=O)N6C[C@H](O)C[C@H]6C(=O)N[C@H](c6ccc(-c7scnc7C)cc6)[C@H](C)O)C(C)C)nn5)cc4)c3n2)C1 [Example 212]	< 10 nM
Cc1ncsc1-c1ccc([C@H](CO)NC(=O)[C@@H]2C[C@@H](O)CN2C(=O)[C@H](C(C)C)n2cc(-c3ccc(COc4c(-c5c(C)c(F)cc6[nH]ncc56)c(C5CC5)cc5c(N6CCCNCC6)nc(OC[C@H]6CCCO6)nc45)cc3)nn2)cc1 [Example 213, (2S,4R)-1-((2S)-2-(4-(4-(((6-cyclopropyl-4-(1,4-diazepan-1-yl)-7-(6-fluoro-5-methyl-1H-indazol-4-yl)-2-(((R)-tetrahydrofuran-2-yl)methoxy)quinazolin-8-yl)oxy)methyl)phenyl)-1H-1,2,3-triazol-1-yl)-3-methylbutanoyl)-4-hydroxy-N—((R)-2-hydroxy-1-(4-(4-methylthiazol-5-yl)phenyl)ethyl)pyrrolidine-2-carboxamide]	< 10 nM
CCn1nccc1-c1ccc([C@H](CO)NC(=O)[C@@H]2C[C@@H](O)CN2C(=O)[C@H](C(C)C)n2cc(-c3ccc(COc4c(-c5c(C)c(F)cc6[nH]ncc56)c(C5CC5)cc5c(N6CCCNCC6)nc(OC[C@H]6CCCO6)nc45)cc3)nn2)cc1 [Example 214, (2S,4R)-1-((2S)-2-(4-(4-(((6-cyclopropyl-4-(1,4-diazepan-1-yl)-7-(6-fluoro-5-methyl-1H-indazol-4-yl)-2-(((R)-tetrahydrofuran-2-yl)methoxy)quinazolin-8-yl)oxy)methyl)phenyl)-1H-1,2,3-triazol-1-yl)-3-methylbutanoyl)-N—((R)-1-(4-(1-ethyl-1H-pyrazol-5-yl)phenyl)-2-hydroxyethyl)-4-hydroxypyrrolidine-2-carboxamide]	< 10 nM
CO[C@H]1CC[C@H](Oc2nc(N3C[C@@H]4C[C@H]3CN4)c3cc(C4CC4)c(-c4c(C)c(F)cc5[nH]ncc45)c(OCc4ccc(-c5cn([C@H](C(=O)N6C[C@H](O)C[C@H]6C(=O)N[C@H](c6ccc(-c7scnc7C)cc6)[C@H](C)O)C(C)C)nn5)cc4)c3n2)C1 [Example 215, (2S,4R)-1-((2S)-2-(4-(4-(((4-((1S,4S)-2,5-diazabicyclo[2.2.1]heptan-2-yl)-6-cyclopropyl-7-(6-fluoro-5-methyl-1H-indazol-4-yl)-2-(((1S,3S)-3-methoxycyclopentyl)oxy)quinazolin-8-yl)oxy)methyl)phenyl)-1H-1,2,3-triazol-1-yl)-3-methylbutanoyl)-4-hydroxy-N-((1R,2S)-2-hydroxy-1-(4-(4-methylthiazol-5-yl)phenyl)propyl)pyrrolidine-2-carboxamide]	< 10 nM
CCn1nccc1-c1ccc([C@H](CO)NC(=O)[C@@H]2C[C@@H](O)CN2C(=O)[C@H](C(C)C)n2cc(-c3ccc(COc4c(-c5c(C)c(F)cc6[nH]ncc56)c(C5CC5)cc5c(N(C)C[C@@H]6CCNC6)nc(OC[C@H](C)OC)nc45)cc3)nn2)cc1 [Example 216, (2S,4R)-1-((2S)-2-(4-(4-(((6-cyclopropyl-7-(6-fluoro-5-methyl-1H-indazol-4-yl)-2-((S)-2-methoxypropoxy)-4-(methyl(((R)-pyrrolidin-3-yl)methyl)amino)quinazolin-8-yl)oxy)methyl)phenyl)-1H-1,2,3-triazol-1-yl)-3-methylbutanoyl)-N—((R)-1-(4-(1-ethyl-1H-pyrazol-5-yl)phenyl)-2-hydroxyethyl)-4-hydroxypyrrolidine-2-carboxamide]	< 10 nM
CCn1nccc1-c1ccc([C@H](CO)NC(=O)[C@@H]2C[C@@H](O)CN2C(=O)[C@H](C(C)C)n2cc(-c3ccc(COc4c(-c5c(C)c(F)cc6[nH]ncc56)c(C5CC5)cc5c(N6CCC(O)CC6)nc(OC[C@H](C)OC)nc45)cc3)nn2)cc1 [Example 217, (2S,4R)-1-((2S)-2-(4-(4-(((6-cyclopropyl-7-(6-fluoro-5-methyl-1H-indazol-4-yl)-4-(4-hydroxypiperidin-1-yl)-2-((S)-2-methoxypropoxy)quinazolin-8-yl)oxy)methyl)phenyl)-1H-1,2,3-triazol-1-yl)-3-methylbutanoyl)-N—((R)-1-(4-(1-ethyl-1H-pyrazol-5-yl)phenyl)-2-hydroxyethyl)-4-hydroxypyrrolidine-2-carboxamide]	< 10 nM
